From patent US9856478B2, “Method for selectively inhibiting ACAT1 in the treatment of obesity, metabolic syndrome, and atherosclerosis” (Trustees of Dartmouth College, priority 2013, dated 2018)

What was measured:
blood myeloid cells = test: Blood myeloid cells (CD11b+Gr1+) after 5-FU injection, flow cytometry; type: in vivo, mouse; conditions: 150 mg/kg single injection, six days post-injection
Procedure: It also had shown previously that global Acat1^−/− induces leukocytosis (Huang et al. 2013. Arterioscl. Thromb. Vasc. Biol. 33:2081-2087). Therefore, experiments were performed to compare the hematopoietic recovery of wild-type, global Acat1^−/−, and Acat1^−M/−M mice after injection of the myelo-suppressive agent 5-fluorouracil (5-FU; 150 mg/kg) (Lindner et al. 1960. Cancer Res. 20:497-502). Mice from all three genotypes (7-9 weeks of age) were administered a single 5-FU injection. After injection, blood myeloid cells (CD11b+Gr1+) isolated from these mice were monitored by flow cytometry. […] Six days post-injection, almost all of the myeloid cells in wild-type, Acat1^−/− and Acat1^−M/−M mice were depleted by 5-FU.

ACAT2 = conditions: cited from earlier work
[1] = tested on: cholesteryl ester synthesis in peritoneal macrophages; test: 3H-oleate incorporation into cholesteryl esters in peritoneal macrophages; type: cell-based, mouse; conditions: 5 μM, 16 hours, agLDL, macrophages from wild-type or LyzCre+/+ mice
Procedure: Peritoneal macrophages were isolated as previously described (Sakashita et al. 2010. J. Lipid Res. 51:1263-1272), four days after injecting 1 ml of thioglycolate (TG) (3% wt/vol; Sigma Chemical Co.). Peritoneal leukocytes were isolated and incubated in 6-well culture dishes with 2 ml/well DMEM medium with 10% FBS at 37° C. for two hours. After washing with PBS two times, the firmly attached macrophages were used to measure ACAT1 mRNA and protein level.
Experiments were then performed to confirm that ACAT1 was specifically deleted in macrophages of the Acat1^−M/−M mouse. Peritoneal macrophages were isolated from Acat1^−M/−M and Acat1+^M/+M mice four days after thioglycolate injection. The cells were incubated with aggregated LDL (agLDL), an agent known to provide large amount of cholesterol to macrophages (Khoo et al. 1988. Arteriosclerosis 8:348-358), with or without an ACAT inhibitor at a saturating concentration (Compound F12511; at 5 μM) (Chang et al. 2000. J. Biol. Chem. 275:28083-28092), for 16 hours, followed by ^3H-oleate incorporation to measure the biosynthesis of labeled cholesteryl esters. […] Next, ACAT1 mRNA and protein content were measured in wild-type and Acat1^−M/−M macrophages. […] In wild-type mice, ACAT1 is abundantly expressed in the adrenal glands.

ACAT1 = conditions: cited from earlier work
hACAT-2 = target: T1, hACAT-2 (Homo sapiens, UniProt O75908); conditions: cited from earlier work
T1 sequence (O75908 1-522): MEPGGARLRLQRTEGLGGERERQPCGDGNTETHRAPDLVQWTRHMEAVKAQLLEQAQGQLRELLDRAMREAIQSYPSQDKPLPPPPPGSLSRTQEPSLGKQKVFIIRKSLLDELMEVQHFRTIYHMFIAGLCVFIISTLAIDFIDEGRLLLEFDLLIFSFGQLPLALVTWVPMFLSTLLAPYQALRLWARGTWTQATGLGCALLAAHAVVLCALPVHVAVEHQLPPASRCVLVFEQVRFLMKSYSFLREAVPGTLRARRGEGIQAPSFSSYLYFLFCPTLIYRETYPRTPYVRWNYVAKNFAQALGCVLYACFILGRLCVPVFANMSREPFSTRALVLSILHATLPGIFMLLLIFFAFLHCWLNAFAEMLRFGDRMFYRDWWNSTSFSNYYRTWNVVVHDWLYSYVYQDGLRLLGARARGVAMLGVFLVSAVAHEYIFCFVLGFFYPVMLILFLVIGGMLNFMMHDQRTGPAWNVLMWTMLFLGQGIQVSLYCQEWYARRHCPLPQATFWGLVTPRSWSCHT

mouse ACAT1 = test: ACAT1 protein by western blot in transfected NIH-3T3 mouse fibroblasts; type: cell-based; conditions: NIH-3T3, rAAV vector transfection, 48 hours, GFP-positive cells
Description: NIH-3T3 mouse fibroblasts were transiently transfected with one of several rAAV vectors encoding EmGFP and microRNA (miR) #52, #53, #54 or #55. Forty-eight hours post-transfection, GFP-positive cells were harvested by FACS. GFP-positive cells were washed then lysed in 10% SDS and syringe homogenized. Twenty microgram of protein per sample was subjected to SDS-PAGE. After western blot analysis, bands were quantified with ImageJ. ACAT1 intensity was normalized to GAPDH as a loading control and expressed as relative intensity.
Four different siRNA molecules (#52-#55; Table 3) targeting the mouse Acat1 gene were inserted into an endogenous mouse microRNA (miR) scaffold using Invitrogen's RNAi design tool. The artificial miRs were ligated into the mammalian expression vector pcDNA6.2-GW/EmGFP-miR. […] The miRs were delivered to the cells using a standard cDNA transfection protocol.

In the case of `O=c1[nH]cc(F)c(=O)[nH]1` [5-FU, 5-fluorouracil], the “depletion of blood myeloid cells” value (blood myeloid cells) is reported as “almost all”.

In the case of `CC(C)c1cccc(C(C)C)c1NC(=O)CC(=O)C(Cc1ccccc1)Cc1ccc(O)cc1` (stereo not shown) [Compound 1B], the IC50 (ACAT2) is given as 1.5 µM.

In the case of `CC(C)c1cccc(C(C)C)c1NC(=O)CC(=O)C(Cc1ccccc1)Cc1ccc(OC(=O)CCCCCCN2CCCCCC2=O)cc1` (stereo not shown) [Compound 1C], the IC50 (ACAT2) is listed as 0.53 µM.

For `CCCCCCCCCCCCS[C@H](C(=O)Nc1cc(C)c(O)c(C)c1C)c1ccccc1` [Eflucimibe (F12511)], the “cholesteryl ester synthesis rate” value [1] is listed as “drastically reduced” and the IC50 (ACAT2) is listed as 0.11 µM.

In the case of `CCCCCCCC(=O)Nc1ccccc1-c1ccccc1` [compound 1], the IC50 (ACAT2) is given as 230 µM.

In the case of `CCCCCCCCC(=O)Nc1ccccc1-c1ccccc1` [compound 2], the IC50 (ACAT2) is listed as 414 µM.

For `CCCCCCCC(=O)Nc1cc(-c2ccccc2)nn1-c1ccccc1` [compound 13], the IC50 (ACAT2) is given as 53 µM.

For `CCCCCCCCC(=O)Nc1cc(-c2ccccc2)nn1-c1ccccc1` [compound 14], the IC50 (ACAT2) is listed as 75 µM.

In the case of `CCCCCCCCCNc1cc(-c2ccccc2)nn1-c1ccccc1` [compound 16], the IC50 (ACAT2) is listed as 97 µM.

For `CCOC(=O)OC(=O)OCC` [diethyl pyrocarbonate], the IC50 (ACAT1) is given as 44 µM, the “greater activity on ACAT1 compared to ACAT-2” value (ACAT1) is given as 4 fold and the IC50 (ACAT2) is given as 170 µM.

In the case of `COc1ccc([C@@H](O)[C@@H](C)Oc2ccc([C@H]3O[C@H](c4ccc(O[C@H](C)[C@H](O)c5ccc6c(c5)OCO6)c(OC)c4)[C@H](C)[C@H]3C)cc2OC)cc1OC` [manassantin B], the “inhibition of hACAT-2” value (hACAT-2; at 1 mM) is listed as 32%.

With “miR Negative Control: negative control miR 5′-TACTGCGCGTGGAGACG-3′ (SEQ ID NO:17), matches no known vertebrate gene (chemistry not given here)” the “Relative Intensity (ACAT1 normalized to GAPDH)” value (mouse ACAT1) was 1.02.

For saucerneol B, the IC50 (hACAT-2) is listed as 124 µM.
